# Source: patent US20260035367A1 (Celgene Corporation, priority 2021, published 2026)
# Where two headings read alike, the source gives them in different places.
# Experiments:
# [1] = molecular target: T1, Recombinant human PKC-theta (His-tagged 362-706) (Homo sapiens, UniProt Q04759); assay: PKC-theta inhibition assay (HTRF KinEASE kit); assay type: biochemical; details: ATP 6.5 μM, STK substrate 525 nM
# T1 construct: Recombinant human PKC-theta (His-tagged 362-706); His
# In short: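 IC50 values were from 4-parameter logistic fits of percent inhibition, based on acceptor/donor HTRF ratios over 10 semi-log compound doses. Kinase reactions, started with substrate plus ATP, ran 30 min at 25 °C in buffer supplemented with 10 mM MgCl2, 1 mM DTT and 0.1% Tween 20; detection lasted 2 h.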
# [2] = system: IL-2 secretion by human effector memory T cells (TEM); assay: Effector memory T cells IL-2 release assay (CD3/CD28 stimulation, HTRF IL-2 detection); assay type: cell-based; details: Homo sapiens, T-cell, 24 h
# In short: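 IL-2 released into the supernatant was quantified by HTRF after 24 h at 37 °C in 5% CO2. The cells were stimulated primary human TEM from donor buffy coats, treated with a 10-point semi-log compound series (0.1% DMSO final, triplicates).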
# [3] = molecular target: T2, Recombinant human PKC-delta (His-tagged 345-676) (Homo sapiens, UniProt Q05655); assay: PKC-delta inhibition assay (HTRF KinEASE kit); assay type: biochemical; details: ratio, PKC-theta vs PKC-delta HTRF; for PKC-theta/PKC-delta selectivity (binned): binned A to G
# T2 construct: PKC-delta (His-tagged 345-676); His
# T2 sequence (Q05655 345-676): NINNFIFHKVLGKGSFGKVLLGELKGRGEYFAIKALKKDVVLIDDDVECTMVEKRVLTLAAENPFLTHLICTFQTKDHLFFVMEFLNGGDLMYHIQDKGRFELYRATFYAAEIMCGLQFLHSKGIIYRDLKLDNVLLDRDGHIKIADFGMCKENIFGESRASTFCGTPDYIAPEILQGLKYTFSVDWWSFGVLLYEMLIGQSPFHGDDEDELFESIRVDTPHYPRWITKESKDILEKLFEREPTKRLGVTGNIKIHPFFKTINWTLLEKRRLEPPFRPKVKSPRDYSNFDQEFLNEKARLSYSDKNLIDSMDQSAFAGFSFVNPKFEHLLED
# [4] = binned A to H, read-out: PKC-theta HTRF pIC50 (binned) (converted)
# [5] = read-out: PKC-theta HTRF pIC50 (converted)
# [6] = binned A to G, read-out: PKC-theta IL2 pIC50 (binned) (converted)
# [7] = read-out: PKC-theta IL2 pIC50 (converted)
# T1 sequence (Q04759 362-706): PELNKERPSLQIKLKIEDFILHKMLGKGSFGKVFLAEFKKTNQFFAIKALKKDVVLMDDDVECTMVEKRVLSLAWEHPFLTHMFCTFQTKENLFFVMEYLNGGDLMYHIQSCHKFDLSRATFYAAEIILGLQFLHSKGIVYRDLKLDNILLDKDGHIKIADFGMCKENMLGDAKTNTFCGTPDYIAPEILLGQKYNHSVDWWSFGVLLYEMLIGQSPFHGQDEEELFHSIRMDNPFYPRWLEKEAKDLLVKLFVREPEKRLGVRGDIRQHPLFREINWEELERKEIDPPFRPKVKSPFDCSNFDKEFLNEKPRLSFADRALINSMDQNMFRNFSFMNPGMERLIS
SMILES,"IC50 [1, 4] [nM]","IC50 [1, 5] [nM]","IC50 [2, 6] [nM]","IC50 [2, 7] [nM]",PKC-theta/PKC-delta selectivity [3],PKC-theta/PKC-delta selectivity (binned) [3]
CC[C@H]1CN(c2cc(Cl)cc(-c3ccnc4c3C(C)(C)C(=O)N4)n2)CCN1 [Example 145],0.316 to 1,0.794,10 to 31.6,15.8,25,C (a ratio of between 20 and 30)
CC1(C)C(=O)Nc2nccc(-c3cc(N4CCNCC4)cc(C(F)(F)F)c3)c21 [Example 37],31.6 to 100,100,> 1000,1260,5,F (a ratio of between 1 and 5)
CC1(O)C(=O)Nc2nccc(-c3cc(N4CCNCC4)ccc3F)c21 (stereo not drawn) [Example 60],100 to 316,126,> 1000,1580,4,F (a ratio of between 1 and 5)
"C[C@@]1(O)C(=O)Nc2nccc(-c3cc(C(F)(F)F)cc(N4CC5CCC4CN5)n3)c21 (single isomer, unassigned) [Example 138]",10 to 31.6,15.8,316 to 1000,631,16,D (a ratio of between 10 and 20)
"CC[C@H]1CN(c2cc(C(F)(F)F)cc(-c3ccnc4c3[C@](C)(OC)C(=O)N4)n2)CCN1 (single isomer, unassigned) [Example 191]",10 to 31.6,15.8,100 to 316,251,22,C (a ratio of between 20 and 30)
"C[C@@]1(O)C(=O)Nc2nccc(-c3cc(C(F)(F)F)cc(N4CC[C@H]5OCCN[C@@H]5C4)n3)c21 (single isomer, unassigned) [Example 97]",100 to 316,158,> 1000,3980,21,C (a ratio of between 20 and 30)
CC1C(=O)Nc2nccc(-c3cccc(C(=O)N4CCNCC4)c3)c21 (stereo not drawn) [Example 27],316 to 1000,1000,> 1000,10000,1,F (a ratio of between 1 and 5)
C[C@@H]1CN(c2ccc(Cl)c(-c3ccnc4c3[C@](C)(O)C(=O)N4)c2)CCN1 [Example 106],316 to 1000,1000,> 1000,10000,10,D (a ratio of between 10 and 20)
CC1(C)C(=O)Nc2nccc(-c3cc(F)cc(N4CCNCC4)c3)c21 [Example 29],31.6 to 100,31.6,316 to 1000,501,1,F (a ratio of between 1 and 5)
"CC[C@@]1(C)C(=O)Nc2nccc(-c3cc(Cl)cc(N4CCNC[C@H]4C)n3)c21 (single isomer, unassigned) [Example 164]",1 to 3.16,2,10 to 31.6,12.6,5,F (a ratio of between 1 and 5)
"CC[C@@]1(C)C(=O)Nc2nccc(-c3cc(C(F)(F)F)cc(N4CCN[C@@H](C)C4)n3)c21 (single isomer, unassigned) [Example 154]",3.16 to 10,7.94,100 to 316,126,19,D (a ratio of between 10 and 20)
"C[C@@H]1CN(c2cc(Cl)cc(-c3ccnc4c3[C@](C)(O)C(=O)N4)n2)CCN1 (single isomer, unassigned) [Example 89]",1 to 3.16,3.16,31.6 to 100,63.1,17,D (a ratio of between 10 and 20)
C[C@H]1CNCCN(c2cc(C(F)(F)F)cc(-c3ccnc4c3C(C)(C)C(=O)N4)n2)C1 [Example 181],10 to 31.6,12.6,100 to 316,158,12,D (a ratio of between 10 and 20)
"C[C@@]1(O)C(=O)Nc2nccc(-c3cc(C(F)(F)F)cc(N4CCNC(CF)C4)n3)c21 (single isomer, unassigned) [Example 109]",3.16 to 10,3.98,316 to 1000,794,29,C (a ratio of between 20 and 30)
CC1(C)C(=O)Nc2nccc(-c3cccc(N(CC4COC4)C4CCCNC4)c3)c21 (stereo not drawn) [Example 26],100 to 316,158,> 1000,2510,2,F (a ratio of between 1 and 5)
CC1(C)C(=O)Nc2nccc(-c3cccc(S(=O)(=O)N4CCNCC4)c3)c21 [Example 42],> 1000,2000,> 1000,10000,1,F (a ratio of between 1 and 5)
"CC[C@@]1(C)C(=O)Nc2nccc(-c3cc(C(C)(F)F)cc(N4CCN[C@@H](C)C4)n3)c21 (single isomer, unassigned) [Example 200]",3.16 to 10,5.01,31.6 to 100,79.4,27,C (a ratio of between 20 and 30)
C[C@H]1CN(c2ccc(Cl)c(-c3ccnc4c3[C@](C)(O)C(=O)N4)c2)CCN1 [Example 107],31.6 to 100,63.1,316 to 1000,501,7,E (a ratio of between 5 and 10)
CC[C@H]1CN(c2cccc(-c3ccnc4c3C(C)(C)C(=O)N4)c2)CCN1 [Example 51],31.6 to 100,79.4,> 1000,1260,3,F (a ratio of between 1 and 5)
C[C@@H]1CNCCN1c1cc(C(F)(F)F)cc(-c2c(F)cnc3c2C(C)(C)C(=O)N3)n1 [Example 156],10 to 31.6,12.6,100 to 316,126,12,D (a ratio of between 10 and 20)
CC1(C)C(=O)Nc2nccc(-c3cc(C#N)cc(N4CCNCC4)c3)c21 [Example 53],100 to 316,251,> 1000,1580,3,F (a ratio of between 1 and 5)
CC1(C)C(=O)Nc2nccc(-c3nc(N4CCNCC4)c(F)cc3Cl)c21 [Example 207],100 to 316,251,> 1000,2000,5,F (a ratio of between 1 and 5)
CC1(C)C(=O)Nc2nccc(-c3cc(C(F)(F)F)cc(N4CCNC[C@H]4CO)n3)c21 [Example 161],1 to 3.16,2.51,31.6 to 100,50.1,12,D (a ratio of between 10 and 20)
